Data taken from US20220193256A1, “NANO-ANTIBIOTICS BASED ON SINGLE-CHAIN DEXTRAN NANOPARTICLES” (priority 2019, published 2022).
Values after ≈ are worked out from the molar mass of the structure shown. Marks after values point to notes of the source that are not given here.

Tests used:
[1] = system: S. aureus; assay: MIC 50 of free antibiotics and nanoconjugates; assay type: cell-based
Description: (§1) All test and quality control strains were recovered from frozen storage (−80° C.) and cultured at 35±2° C. for 18-24 h.
(§2) All test articles were dissolved in sterile ultra-pure water at a concentration of 2.56 mg/mL. […] 100 and 200 μL of drug-free medium was added to positive and negative control wells, respectively. Suspensions equivalent to a McFarland 0.5 standard were prepared for each test strain in 5 mL sterile phosphate-buffered saline (PBS) and further diluted 1:150 in CA-MHB to provide an inoculum of 2-8×10^5 CFU/mL. 100 μL of each inoculum was dispensed into all wells—except negative control wells (100 μL sterile water added)—to provide an inoculum of ˜5×10^5 CFU/well and a final volume of 200 μL per well. Assay plates were incubated according to CLSI M07-A10 guidelines of 35±2° C. for 16-20 h in air.

[2] = system: P. aeruginosa; assay: MIC 50 of free antibiotics and nanoconjugates; assay type: cell-based
Description: as §1, §2

[3] = Release profile test of tobramycin in PBS (dialysis tubes, LC-MS); assay type: in vitro ADME; settings: PBS pH 7.4, 37° C.
Description: 1 mL dialysis tubes (Float-a-lyzer®) were used whose membrane is based on MWCO 8-10 kDa cellulose ester. […] The studies were performed in a chamber at 37° C. and stirring at 250 rpm. Samples were taken at different times and analyzed by LC-MS.

[4] = system: K. pneumoniae ATCC BAA-2146; assay: MIC, antimicrobial susceptibility test (CLSI M07-A10); assay type: cell-based; settings: Klebsiella pneumoniae, ATCCBAA2146; read-out: Test Article MIC
Description: as §1, §2

[5] = system: A. baumannii NCTC 12156; assay: as above; assay type: cell-based
Description: as §1, §2

[6] = system: E. coli ATCC 25922; assay: as above; assay type: cell-based
Description: as §1, §2

[7] = system: P. aeruginosa ATCC 13437; assay: as above; assay type: cell-based; settings: replicates 1 and 2, as tobramycin concentration
Description: as §1, §2

[8] = system: E. coli ATCC BAA-2469; assay: as above; assay type: cell-based; settings: Escherichia coli, ATCCBAA2469; read-out: Test Article MIC
Description: as §1, §2

[9] = system: K. pneumoniae ATCC 43816; assay: as above; assay type: cell-based
Description: as §1, §2

[10] = system: P. aeruginosa ATCC 27853; assay: as above; assay type: cell-based
Description: as §1, §2

[11] = system: E. cloacae complex KPC 114; assay: as above; assay type: cell-based
Description: as §1, §2

[12] = system: E. aerogenes KPC 108; assay: as above; assay type: cell-based
Description: as §1, §2

[13] = system: A. baumannii ATCC BAA-747; assay: as above; assay type: cell-based
Description: as §1, §2

[14] = system: PACC#7; assay: MIC by visual inspection, P. aeruginosa panel; assay type: cell-based; settings: Pseudomonas aeruginosa; PACC#7, clinical isolate, mucoid phenotype; read-out: Test Article MIC
Description: (§3) The clinical isolates were obtained from the Biobank of the Hospital Donostia/Biodonostia (San Sebastian, Spain) with permission. MIC is obtained by visual inspection and considered the minimum concentration at which no bacterial growth can be detected (i. e. the buffer appears transparent) when bacteria was incubated at gradient concentration of test compound.

[15] = system: PAO1 DSMZ 22644; assay: MIC by visual inspection, P. aeruginosa panel; assay type: cell-based; settings: Pseudomonas aeruginosa; PAO1 DSMZ 22644, investigational strain; read-out: Test Article MIC
Description: as §3

[16] = system: PACC#6; assay: MIC by visual inspection, P. aeruginosa panel; assay type: cell-based; settings: Pseudomonas aeruginosa; read-out: Test Article MIC
Description: as §3

[17] = system: PA14 DSMZ 19882; assay: MIC by visual inspection, P. aeruginosa panel; assay type: cell-based; settings: Pseudomonas aeruginosa; PA14 DSMZ 19882, investigational strain; read-out: Test Article MIC
Description: as §3

[18] = system: PACC#9; assay: MIC by visual inspection, P. aeruginosa panel; assay type: cell-based; settings: Pseudomonas aeruginosa; PACC#9, clinical isolate, mucoid phenotype; read-out: Test Article MIC
Description: as §3

[19] = system: PACC#10; assay: MIC by visual inspection, P. aeruginosa panel; assay type: cell-based; settings: Pseudomonas aeruginosa; PACC#10, clinical isolate, mucoid phenotype; read-out: Test Article MIC
Description: as §3

[20] = system: P. aeruginosa ATCC 27853; assay: MIC by visual inspection, P. aeruginosa panel; assay type: cell-based; settings: Pseudomonas aeruginosa, ATCC27853; P. aeruginosa ATCC 27853, reference strain; read-out: Test Article MIC
Description: as §3

[21] = system: PACC#8; assay: MIC by visual inspection, P. aeruginosa panel; assay type: cell-based; settings: Pseudomonas aeruginosa; PACC#8, clinical isolate; read-out: Test Article MIC
Description: as §3

[22] = system: PACC#5; assay: MIC by visual inspection, P. aeruginosa panel; assay type: cell-based; settings: Pseudomonas aeruginosa; PACC#5, clinical isolate, mucoid phenotype; read-out: Test Article MIC
Description: as §3

[23] = system: biofilm of Pseudomonas Aeruginosa PAO1 gfp; assay: Testing against biofilm; assay type: cell-based; settings: 3-day biofilm treated for 12 h, tobramycin concentration 2 μg/mL
Description: Continuous biofilm of Pseudomonas Aeruginosa PAO1 gfp in LB medium was grown for 3 days. […] Images were obtained using a 20×/0.80 air objective with Zeiss LSM 800 Confocal laser scanning microscope. Simulated fluorescence projections and orthogonoal views sections were processed using ImageJ software. Data were analysed with COMSTAT2 software.

[24] = In vivo pharmacokinetic profile in the lungs after oropharyngeal deposition; parameters: species or system Sprague Dawley rats; settings: male, Sprague Dawley, rat, lung homogenate, other: oropharyngeal deposition, 10 mg/kg
Description: The administration technique was oropharyngeal deposition. Following administration, terminal lung samples were collected at the following time-points: 0.083, 0.25, 0.5, 1, 2, 4, 8, 12, 24 h post-dose.
For the purpose of the invention, the AUC was measured by the trapezoidal method using the following formula: […]

gentamycin sulfate [Free Gentamycin sulfate]
MIC 50, Antibiotic conc. [1]: 1 to 5 µg/mL
MIC 50, Antibiotic conc. [2]: 1 to 5 µg/mL

NC[C@H]1O[C@H](O[C@H]2[C@H](O)[C@@H](O[C@H]3O[C@H](CO)[C@@H](O)[C@H](N)[C@H]3O)[C@H](N)C[C@@H]2N)[C@H](N)C[C@@H]1O [Tobramycin, tobramycin]
Tobramycin released (%) ([3]; time 0 hour): 0.30%
Tobramycin released (%) ([3]; time 1 hour): 2.91%
Tobramycin released (%) ([3]; time 2 hour): 7.57%
Tobramycin released (%) ([3]; time 4 hour): 19.03%
Tobramycin released (%) ([3]; time 8 hour): 28.72%
Tobramycin released (%) ([3]; time 24 hour): 58.41%
Tobramycin released (%) ([3]; time 48 hour): 78.88%
Tobramycin released (%) ([3]; time 72 hour): 87.20%
MIC [4]: > 128 µg/mL
Test Article MIC ([5]; A. baumannii NCTC 12156, replicates 1 and 2, as tobramycin concentration): 4 µg/mL
MIC ([5]; Acinetobacter baumannii, NCTC12156, read-out: Test Article MIC): 4 µg/mL (≈ 8.56 µM)
Test Article MIC ([6]; E. coli ATCC 25922, replicates 1 and 2, as tobramycin concentration): 2^a μg/mL
MIC ([6]; Escherichia coli, ATCC25922, read-out: Test Article MIC): 2 µg/mL (≈ 4.28 µM)
Test Article MIC ([7]; P. aeruginosa ATCC 13437, listed as Free Tobramycin): 64 µg/mL
MIC ([7]; Pseudomonas aeruginosa, ATCC13437, P. aeruginosa ATCC 13437, read-out: Test Article MIC): 128 µg/mL (≈ 274 µM)
MIC [8]: > 128 µg/mL
Test Article MIC ([9]; K. pneumoniae ATCC 43816, replicates 1 and 2, as tobramycin concentration): 0.5 µg/mL
MIC ([9]; Klebsiella pneumoniae, ATCC43816, read-out: Test Article MIC): 0.5 µg/mL (≈ 1.07 µM)
Test Article MIC ([10]; P. aeruginosa ATCC 27853, replicates 1 and 2, as tobramycin concentration): 1^b μg/mL
MIC ([10]; Pseudomonas aeruginosa, ATCC27853, read-out: Test Article MIC): 1 µg/mL (≈ 2.14 µM)
Test Article MIC ([11]; E. cloacae complex KPC 114, replicates 1 and 2, as tobramycin concentration): 32 µg/mL
MIC ([11]; Enterobacter cloacae, read-out: Test Article MIC): 32 µg/mL (≈ 68.4 µM)
Test Article MIC ([12]; E. aerogenes KPC 108, replicates 1 and 2, as tobramycin concentration): 4 µg/mL
MIC ([12]; Klebsiella aerogenes, KPC108, read-out: Test Article MIC): 4 µg/mL (≈ 8.56 µM)
Test Article MIC ([13]; A. baumannii ATCC BAA-747, replicates 1 and 2, as tobramycin concentration): 0.5 µg/mL
MIC ([13]; Acinetobacter baumannii, ATCCBAA747, read-out: Test Article MIC): 0.5 µg/mL (≈ 1.07 µM)
MIC 50, Antibiotic conc. [1]: 0.5 to 1 µg/mL
MIC 50, Antibiotic conc. [2]: 0.5 to 1 µg/mL
MIC [14]: 0.5 µg/mL (≈ 1.07 µM)
MIC [15]: 0.5 µg/mL (≈ 1.07 µM)
MIC [16]: ≥ 4 µg/mL
MIC [17]: 0.5 µg/mL (≈ 1.07 µM)
MIC [18]: 0.5 µg/mL (≈ 1.07 µM)
MIC [19]: 1 µg/mL (≈ 2.14 µM)
MIC [20]: 0.5 µg/mL (≈ 1.07 µM)
MIC [21]: 0.5 µg/mL (≈ 1.07 µM)
MIC [22]: 0.5 µg/mL (≈ 1.07 µM)
% Biomass (μm^3/μm^2) [23]: 68.1%
% Biomass (μm^3/μm^2) ([23]; listed as tobramycin): 68.1%
AUC [24]: 1110 µg·h/mL

Colistin sulfate [Free Colistin sulfate]
MIC 50, Antibiotic conc. [2]: 1 to 5 µg/mL
